Reference: patent US20120010131A1, “NOVEL CYCLOSPORIN ANALOGUES” (Scynexis, Inc., priority 2009, published 2012)

How the values were obtained:
[1] = test system: HCV RNA replicon ET (luc ubi neo/ET); conditions: read-out: EC50 (effective concentration that reduced viral replication by 50%); HCV replicon ET line, LUC reporter, 72 hours
Excerpt: Compounds were examined in the human hepatoma cell line ET (lub ubi neo/ET), a HCV RNA replicon containing a stable luciferase (LUC) reporter. The HCV RNA replicon ET contains the 5′ end of HCV (with the HCV Internal Ribosome Entry Site (IRES) and the first few amino acids of the HCV core protein) which drives the production of a firefly luciferase (LUC), ubiquitin, and neomycin phosphotransferase (NeoR) fusion protein. Ubiquitin cleavage releases the LUC and NeoR proteins. The EMCV IRES element controls the translation of the HCV […] proteins NS3-NS5. […] At the 3′ end of the replicon is the authentic 3′ NTR of HCV. The activity of the LUC reporter is directly proportional to HCV replication levels and positive-control antiviral compounds produce a reproducible antiviral response using the LUC endpoint.
The activity of the LUC reporter is directly proportional to HCV RNA levels in the human cell line.

[2] = target: cyclophilin A (Homo sapiens, UniProt P62937); assay: Cyclophilin binding competitive ELISA, cyclophilin A; conditions: human recombinant cyclophilin
Protocol: (§1) The cyclophilin inhibition binding of compounds of the invention was determined using a competitive ELISA adapted from the methods described by Quesniaux et al. (Eur. J Immunol. 1987, Vol. 17, pages 1359-1365). Activated ester of succinyl spacers bound to D-Lys^8-cylosporine A (D-Lys^8-Cs) was coupled to bovine serum albumin (BSA) through D-lysyl residue in position 8. BSA was dissolved in 0.1 M borate buffer, pH 9.0 (4 mg in 1.4 ml). A hundredfold molar excess of D-Lys^8-Cs dissolved in dimethyl formamide (0.6 ml) was added dropwise to the BSA under vigorous stirring. […] After acetone precipitation of an aliquot of the conjugated protein, no covalently bound D-Lys^8-Cs remained in the acetone solution and the extent of cyclosporine covalent binding was calculated.
(§2) Microtiter Plates were coated with D-Lys^8-Cs-BSA conjugate ([…] in PBS for 24 hours at 4° C.). […] Cyclophilin was detected with anti-cyclophilin rabbit antiserum diluted in 1% BSA containing PBS and incubated overnight at 4° C. […] Bound rabbit antibodies were then detected by goat anti-rabbit IgG conjugated to alkaline phosphatase diluted in 1% BSA-PBS and allowed to incubate for 2 hours at 37° C. […] After incubation with 4-nitrophenyl phosphate (1 g/1 in diethanolamine buffer, pH 9.8) for 1 to 2 hours at 37° C., the enzymatic reaction was measured spectrophotometrically at 405 nm using a spectrophotometer.

[3] = target: cyclophilin B (Homo sapiens, UniProt P23284); assay: Cyclophilin binding competitive ELISA, cyclophilin B; conditions: human recombinant cyclophilin
Protocol: as §1, §2

[4] = target: cyclophilin D (Homo sapiens, UniProt P30405); assay: Cyclophilin binding competitive ELISA, cyclophilin D; conditions: human recombinant cyclophilin
Protocol: as §1, §2

[5] = test system: IL-2 in Jurkat cells; assay: T cell stimulation (IL-2) in Jurkat cells with anti-CD3 and anti-CD28 co-stimulation; format: cell-based; conditions: 6 hours, Luminex 1-plex
Protocol: (§3) Compounds of the invention were tested for their T Cell stimulation (IL-2) in Jurkat cells with anti-CD3 and anti-CD28 co-stimulation. […] Cyclosporine A (control) was also run at a 0.5-Log 9-point titration, starting at 500 ng/mL. All compounds to be tested were dissolved in dimethyl sulfoxide. Cytotoxicity was evaluated with parallel Alamar Blue plates. Jurkat cells were seeded at 2×10^5 cells per well in 190 μL growth media in a 96-well plate, Cells were cultured in RPMI 1640 medium, 10% fetal bovine serum, and L-Glutamine with incubation at 37° C. with 5% carbon dioxide. After 1 hour of incubation the cells were stimulated with immobilized anti-CD3 (0.4m/well), anti-CD28 soluble (2 μg/mL). After 6 hours the sample supernatants were harvested and stored at −80° C. 50 μL samples of supernatant were tested for IL-2 using a Luminex® 1-plex assay.

[6] = test system: Jurkat cells; assay: Cytotoxicity in parallel Alamar Blue plates (Jurkat cells); format: cell-based
Protocol: as §3

[7] = test system: mitochondrial permeability transition (MPT); assay: Mitochondrial permeability transition: Ca2+-induced swelling of rat liver mitochondria; format: biochemical; conditions: swelling induced by 150 micromolar Ca2+, compound added 5 minutes before, read-out: EC50 (inhibition of mitochondrial swelling)
Protocol: Mitochondrial permeability transition (MPT) was determined by measuring swelling of the mitochondria induced by Ca^2+. The procedure was adapted from the method described by Blattner et al, Analytical Biochem, Volume 295, page 220 (2001). Mitochondria were prepared from rat livers, which had been perfused with phosphate-buffered saline (PBS) to remove blood, using standard methods that utilized gentle homogenization in sucrose based buffer and then differential centrifugation to first remove cellular debris and then to pellet the mitochondria. Swelling was induced by 150 micromolar Ca^2+ (added from a concentrated solution of calcium chloride) and was monitored by measuring the scattering at 535-540 nm. Representative compounds were added 5 minutes before swelling was induced. EC50 were determined by comparing swelling with and without the compounds of the invention.

Sequence of cyclophilin A (P62937 whole entry): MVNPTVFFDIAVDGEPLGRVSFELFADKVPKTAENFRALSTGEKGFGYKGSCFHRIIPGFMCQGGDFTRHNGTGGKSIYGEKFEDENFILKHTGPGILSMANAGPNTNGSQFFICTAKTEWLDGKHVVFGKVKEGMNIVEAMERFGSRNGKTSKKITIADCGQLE
Sequence of cyclophilin B (P23284 34-216): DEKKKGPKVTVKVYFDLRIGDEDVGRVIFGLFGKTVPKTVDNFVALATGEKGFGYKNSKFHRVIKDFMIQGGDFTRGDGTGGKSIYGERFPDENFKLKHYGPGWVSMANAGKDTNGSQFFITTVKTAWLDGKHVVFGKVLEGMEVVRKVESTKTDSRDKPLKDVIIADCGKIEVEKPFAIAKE
Sequence of cyclophilin D (P30405 30-207): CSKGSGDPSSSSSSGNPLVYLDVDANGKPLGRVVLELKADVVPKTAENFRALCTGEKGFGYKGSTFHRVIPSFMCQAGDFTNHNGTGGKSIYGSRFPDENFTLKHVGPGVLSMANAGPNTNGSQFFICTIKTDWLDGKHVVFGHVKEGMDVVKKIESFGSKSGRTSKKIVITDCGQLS

Structure (SMILES): C/C=C/C[C@@H](C)[C@@H](O)[C@H]1C(=O)N[C@@H](CC)C(=O)N(C)CC(=O)N(C)[C@@H](CC(C)(C)OCc2ccccc2)C(=O)N[C@@H](C(C)C)C(=O)N(C)[C@@H](CC(C)C)C(=O)N[C@@H](C)C(=O)N[C@H](C)C(=O)N(C)[C@@H](CC(C)C)C(=O)N(C)[C@@H](CC(C)C)C(=O)N(C)[C@@H](C(C)C)C(=O)N1C [Compound A, [4′-Benzyloxy-N-methylleucine]^4cyclosporine A]
- EC50 [1]: 0.41 µM
- cyclophilin A binding value [2]: ≤ 98 ng/mL
- cyclophilin B binding value [3]: 102 ng/mL
- cyclophilin D binding value [4]: 124 ng/mL
- IL-2 activity EC50 [5]: 0.043 mg/L
- Cytotoxicity [6]: absence of cytotoxicity
- EC50 [7]: < 10 µM
